Assay results: ChEMBL document CHEMBL1143554, “4-phenoxypiperidines: potent, conformationally restricted, non-imidazole histamine H3 antagonists” (J Med Chem, 2005)

Tests used:
Histamine H3 receptor [1] = target: T1, Histamine H3 receptor (Homo sapiens, UniProt Q9Y5N1); assay: Mean functional activity against human H3 receptor; settings: read-out: pA2 (converted)
Histamine H3 receptor [2] = target: T1, Histamine H3 receptor; assay: Mean binding affinity for human H3 receptor

T1 sequence (Q9Y5N1 whole entry): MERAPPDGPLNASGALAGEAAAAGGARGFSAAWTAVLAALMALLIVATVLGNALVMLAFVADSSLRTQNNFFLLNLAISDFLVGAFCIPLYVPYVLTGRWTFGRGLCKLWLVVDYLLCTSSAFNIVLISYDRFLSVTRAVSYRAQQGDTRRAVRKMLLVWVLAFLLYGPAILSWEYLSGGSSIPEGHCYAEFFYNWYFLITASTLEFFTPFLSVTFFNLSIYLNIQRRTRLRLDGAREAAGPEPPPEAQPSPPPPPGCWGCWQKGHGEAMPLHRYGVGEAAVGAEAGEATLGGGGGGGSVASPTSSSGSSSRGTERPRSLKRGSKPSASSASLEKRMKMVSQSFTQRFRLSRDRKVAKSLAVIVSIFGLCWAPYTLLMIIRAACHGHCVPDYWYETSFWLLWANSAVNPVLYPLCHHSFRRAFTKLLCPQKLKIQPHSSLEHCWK

CC(C)N1CCC(Oc2ccc(CN(C)C)cc2)CC1
Kb (Histamine H3 receptor [1]): 1.17 nM | Ki (Histamine H3 receptor [2]): 3.02 nM

CC(C)N1CCC(Oc2ccc(CN3CCCCCC3)cc2)CC1
Kb (Histamine H3 receptor [1]): 0.174 nM | Ki (Histamine H3 receptor [2]): 1.7 nM

CCC(C)N1CCC(Oc2ccc(C#N)cc2)CC1 (stereo not given)
Ki (Histamine H3 receptor [2]): 15.1 nM

CCN(CC)Cc1ccc(OC2CCN(C(C)C)CC2)cc1
Kb (Histamine H3 receptor [1]): 0.468 nM | Ki (Histamine H3 receptor [2]): 1.23 nM

N#Cc1ccc(OC2CCNCC2)cc1
Ki (Histamine H3 receptor [2]): > 10000 nM

CC(C)N1CCC(Oc2ccc(CN(C)CCN(C)C)cc2)CC1
Kb (Histamine H3 receptor [1]): 0.214 nM | Ki (Histamine H3 receptor [2]): 1.15 nM

N#Cc1ccc(OCCCCCN2CCCC2)cc1
Ki (Histamine H3 receptor [2]): 19.1 nM

C[C@@H]1CCCN1CCc1cc2cc(C#N)ccc2o1
Ki (Histamine H3 receptor [2]): 0.447 nM

CCN1CCC(Oc2ccc(C#N)cc2)CC1
Ki (Histamine H3 receptor [2]): 81.3 nM

CCCCN(C)Cc1ccc(OC2CCN(C(C)C)CC2)cc1
Kb (Histamine H3 receptor [1]): 0.339 nM | Ki (Histamine H3 receptor [2]): 1.48 nM

CC(C)N1CCC(Oc2ccc(CN3CCCN(C)CC3)cc2)CC1
Kb (Histamine H3 receptor [1]): 0.324 nM | Ki (Histamine H3 receptor [2]): 1 nM

CC(C)N1CCC(Oc2ccc(CN3CCC(CO)CC3)cc2)CC1
Kb (Histamine H3 receptor [1]): 0.257 nM | Ki (Histamine H3 receptor [2]): 1 nM

CC(C)N1CCC(Oc2ccc(CN3CCCCC3)cc2)CC1
Kb (Histamine H3 receptor [1]): 0.126 nM | Ki (Histamine H3 receptor [2]): 0.631 nM

CC(C)N1CCC(Oc2ccc(CNC3CC3)cc2)CC1
Kb (Histamine H3 receptor [1]): 0.457 nM | Ki (Histamine H3 receptor [2]): 1.62 nM

CC(C)N1CCC(Oc2ccc(CN3CCC(Cc4ccccc4)CC3)cc2)CC1
Kb (Histamine H3 receptor [1]): 0.813 nM | Ki (Histamine H3 receptor [2]): 1.45 nM

CC(C)CN1CCC(Oc2ccc(C#N)cc2)CC1
Ki (Histamine H3 receptor [2]): 66.1 nM

CC(C)N1CCC(Oc2ccc(CN3CCCC3)cc2)CC1
Kb (Histamine H3 receptor [1]): 0.355 nM | Ki (Histamine H3 receptor [2]): 1.95 nM

Cc1ccc2nc(-c3ccc(OCCCN4CCCCC4)cc3)cn2c1
Kb (Histamine H3 receptor [1]): 2.04 nM

CC(C)N1CCC(Oc2ccc(CN3CCN(c4ccccc4)CC3)cc2)CC1
Kb (Histamine H3 receptor [1]): 1.02 nM | Ki (Histamine H3 receptor [2]): 2 nM

CC(C)N1CCC(Oc2ccc(CN3CCN(C)CC3)cc2)CC1
Kb (Histamine H3 receptor [1]): 0.257 nM | Ki (Histamine H3 receptor [2]): 0.741 nM

CC(C)N1CCC(Oc2ccc(CNc3ccccc3)cc2)CC1
Kb (Histamine H3 receptor [1]): 2.69 nM | Ki (Histamine H3 receptor [2]): 5.5 nM

CCCN1CCC(Oc2ccc(C#N)cc2)CC1
Ki (Histamine H3 receptor [2]): 107 nM

N#Cc1ccc(OC2CCN(C3CCCCC3)CC2)cc1
Ki (Histamine H3 receptor [2]): 32.4 nM

CC(C)N1CCC(Oc2ccc(CN3CCN(Cc4ccccc4)CC3)cc2)CC1
Kb (Histamine H3 receptor [1]): 0.661 nM | Ki (Histamine H3 receptor [2]): 2 nM

CC(C)N1CCC(Oc2ccc(CN3CCC(O)CC3)cc2)CC1
Kb (Histamine H3 receptor [1]): 0.331 nM | Ki (Histamine H3 receptor [2]): 1.41 nM

CC(C)N1CCC(Oc2ccc(CNc3ccccn3)cc2)CC1
Kb (Histamine H3 receptor [1]): 0.741 nM | Ki (Histamine H3 receptor [2]): 2.24 nM

CC(CO)N1CCC(Oc2ccc(C#N)cc2)CC1 (stereo not given)
Ki (Histamine H3 receptor [2]): 759 nM

CCC(CC)N1CCN(C(=O)CCC(=O)c2ccc(Cl)cc2)CC1
Ki (Histamine H3 receptor [2]): 0.871 nM
